Our source for the TGI values is PubChem BioAssay (NCI).

Some test systems named below: NCI/ADR-RES ovarian; RXF 393 renal; IGROV1 ovarian; LOX IMVI melanoma.
What all share (experiment): NCI tumour cell line growth inhibition, 48 h

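Method: 48-hour compound exposure of cells in 96-well plates, five concentrations, linear interpolation of endpoints. TGI: concentration producing complete growth inhibition.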

In the case of `COc1ccc(CN2C[C@H]3[C@@H](CC(=O)O[C@H]3C)CC2=O)cc1`, the TGI with NCI/ADR-RES ovarian, with RXF 393 renal and in the experiment on IGROV1 ovarian was more than 100 µM in each case.
Regarding `O=C1/C(=C\c2ccc(Cl)cc2Cl)Sc2scc(-c3cccc([N+](=O)[O-])c3)[n+]21`, the TGI was 41.9 µM in the experiment with NCI/ADR-RES ovarian, 3.47 µM in the experiment with LOX IMVI melanoma, 14.6 µM in the experiment with RXF 393 renal and 22.5 µM in the experiment with IGROV1 ovarian.
As to `CC1=NN(C(=O)CC(=O)Nc2ccccc2C)C(=O)C1N=Nc1ccc(C(=O)O)cc1` (stereo not given), the TGI in the experiment on NCI/ADR-RES ovarian, in the experiment with LOX IMVI melanoma, in the experiment on RXF 393 renal and in the experiment with IGROV1 ovarian was more than 100 µM throughout.
For the compound `Cc1ccccc1C1CC(=O)CC(c2ccccc2C)C12C(=O)NC(=O)NC2=O` (stereo not given), the TGI with NCI/ADR-RES ovarian, in the experiment on LOX IMVI melanoma, with RXF 393 renal and with IGROV1 ovarian was more than 100 µM in each case.
With `Cc1ccc(/C(O)=C/c2nc3ccccc3oc2=O)cc1`, the TGI with NCI/ADR-RES ovarian, in the experiment on RXF 393 renal and with IGROV1 ovarian was more than 100 µM each time.
Take `COc1cc(OC)cc(Oc2nc3ccccc3nc2C(=O)O)c1`: the TGI in the experiment on NCI/ADR-RES ovarian, in the experiment with LOX IMVI melanoma, in the experiment on RXF 393 renal and in the experiment with IGROV1 ovarian was more than 100 µM in each case.
On to `C=CCCCC1CCCNC1=O` (stereo not given), for which the TGI with RXF 393 renal and in the experiment with IGROV1 ovarian was more than 100 µM throughout.
With `CCCCON1C[C@@H](O)C(O)[C@@H](O)C1` (stereo not given in full), the TGI with NCI/ADR-RES ovarian, with LOX IMVI melanoma, in the experiment on RXF 393 renal and with IGROV1 ovarian was more than 100 µM in each case.
With `O=[N+]([O-])C(Cl)C(Cl)C(Cl)=C(Cl)Cl` (stereo not given), the TGI with NCI/ADR-RES ovarian is more than 73.9 µM; with LOX IMVI melanoma it was 28.8 µM; in the experiment on RXF 393 renal, 33.7 µM; in the experiment with IGROV1 ovarian, 18.3 µM.
In the case of `COc1cc(/C=C2\C[C@H]3[C@@H]4CC=C5C[C@@H](O)CC[C@]5(C)[C@H]4CC[C@]3(C)[C@H]2O)cc(OC)c1OC`, the TGI in the experiment on NCI/ADR-RES ovarian is more than 100 µM; in the experiment with LOX IMVI melanoma, 27.3 µM; in the experiment with RXF 393 renal, 18.3 µM; in the experiment with IGROV1 ovarian it was more than 100 µM.
For the compound `CC(=O)OC1CCN(C(=O)c2ccccc2)CC1CC1(c2cc3ccccc3[nH]2)OCCO1` (stereo not given), the TGI with NCI/ADR-RES ovarian, in the experiment on LOX IMVI melanoma, in the experiment on RXF 393 renal and in the experiment with IGROV1 ovarian was more than 100 µM each time.
For `N#Cc1ccc(Oc2nc3ccccc3nc2-c2ccccc2)cc1`, the TGI in the experiment on LOX IMVI melanoma, with RXF 393 renal and in the experiment on IGROV1 ovarian was more than 100 µM each time.
For `CN(NC(=O)c1ccco1)C1=NCCN1`, the TGI in the experiment with NCI/ADR-RES ovarian, with LOX IMVI melanoma, in the experiment with RXF 393 renal and with IGROV1 ovarian was more than 100 µM each time.
Regarding `N#Cc1c2ccc([N+](=O)[O-])cc2c(=O)n2c1sc1ccc(C(F)(F)F)cc12`, the TGI in the experiment with NCI/ADR-RES ovarian, in the experiment with LOX IMVI melanoma, with RXF 393 renal and in the experiment with IGROV1 ovarian was more than 100 µM throughout.
On to `COc1cc2cc(C(=O)N3CC(CCl)c4c3cc([N+](=O)[O-])c3ccccc43)[nH]c2c(OC)c1OC` (stereo not given), for which the TGI in the experiment with NCI/ADR-RES ovarian was more than 78.3 µM; with LOX IMVI melanoma, more than 100 µM; in the experiment on RXF 393 renal it was more than 100 µM; with IGROV1 ovarian, more than 100 µM.
Consider `C=C1C(=O)O[C@@H]2[C@H]1C[C@@H](O)[C@H](C)[C@@](O)(C(=O)/C=C/C)[C@H]2OC(=O)C(C)CC` (stereo not given in full), for which the TGI with NCI/ADR-RES ovarian is more than 67.2 µM; in the experiment with LOX IMVI melanoma it was 12.3 µM; with RXF 393 renal, 5.36 µM; in the experiment with IGROV1 ovarian, 12.8 µM.
For the compound `O=C1CCCCC/C1=C\c1ccc(F)cc1`, the TGI in the experiment with LOX IMVI melanoma and in the experiment on IGROV1 ovarian was more than 100 µM throughout.
As to `CCCCCCCC1(N=[N+]=[N-])C(=O)c2ccccc2N(C)C1=O` (stereo not given), the TGI with NCI/ADR-RES ovarian, in the experiment on LOX IMVI melanoma, in the experiment on RXF 393 renal and in the experiment with IGROV1 ovarian was more than 100 µM each time.
On to `CC(=O)C1C(=O)C(=O)N(c2cccc(C)c2C)C1=O` (stereo not given), for which the TGI in the experiment with NCI/ADR-RES ovarian, with LOX IMVI melanoma and with IGROV1 ovarian was more than 100 µM throughout.
Turning to `CC(C)/C(Cl)=N\OC(=O)Nc1cccc(F)c1`, the TGI worked out at 37 µM in the experiment on NCI/ADR-RES ovarian, 5.31 µM with LOX IMVI melanoma, 31 µM in the experiment with RXF 393 renal and 36.2 µM with IGROV1 ovarian.
For `C/C=C/c1c(O)c(=O)c2c(OC)cc(OC)c3c4c(OC)cc(OC)c5c(=O)c(O)c(/C=C/C)c(c1c23)c54`, the figures for the TGI with NCI/ADR-RES ovarian, in the experiment on LOX IMVI melanoma and in the experiment with IGROV1 ovarian were 34 µM, 57.4 µM and 19.2 µM, respectively.
Take `C[C@H]1O[C@@H](c2c(O)ccc3ccccc23)C[C@@H](N(C)C)C1O` (stereo not given in full): the TGI in the experiment on NCI/ADR-RES ovarian was more than 100 µM; in the experiment on LOX IMVI melanoma, more than 100 µM; with RXF 393 renal it was 77.3 µM; in the experiment on IGROV1 ovarian it was more than 100 µM.
Turning to `CC(=O)Oc1ccc2c(c1)Oc1cc(C(C)=O)ccc1C21OC(=O)c2ccccc21` (stereo not given), the TGI in the experiment on NCI/ADR-RES ovarian, in the experiment with LOX IMVI melanoma, in the experiment on RXF 393 renal and in the experiment with IGROV1 ovarian was more than 100 µM in each case.
For the compound `C#CCOC(=O)c1ccccc1O`, the TGI with NCI/ADR-RES ovarian, in the experiment with LOX IMVI melanoma, with RXF 393 renal and in the experiment with IGROV1 ovarian was more than 100 µM in each case.
For the compound `Cc1ccc(S(=O)(=O)N2CC3OC(C)(C)OC3C2CO)cc1` (stereo not given), the TGI with NCI/ADR-RES ovarian, in the experiment with RXF 393 renal and in the experiment with IGROV1 ovarian was more than 100 µM throughout.
For the compound `COc1cc(N=CN(C)C)c2ncccc2c1`, the TGI in the experiment on NCI/ADR-RES ovarian, in the experiment on LOX IMVI melanoma, in the experiment with RXF 393 renal and in the experiment with IGROV1 ovarian was more than 100 µM in each case.
Turning to `COc1cc(N(CCC#N)CCC#N)ccc1/C=C1\SC(=S)NC1=O`, the TGI in the experiment with NCI/ADR-RES ovarian, in the experiment on LOX IMVI melanoma, in the experiment with RXF 393 renal and in the experiment on IGROV1 ovarian was more than 100 µM in each case.
For `Cc1ccc2c(c1)C(=O)/C(=C\c1ccccc1)CCS2(=O)=O`, the values for the TGI with NCI/ADR-RES ovarian, in the experiment with LOX IMVI melanoma and in the experiment on IGROV1 ovarian were more than 52.2 µM, 44.3 µM and 28.7 µM, respectively.
Consider `CC(C)CNC(=O)CCc1cccc2c1oc1c(CCN)cccc12`, for which the TGI in the experiment on NCI/ADR-RES ovarian is 40.3 µM; in the experiment on LOX IMVI melanoma it was 27.9 µM; in the experiment with RXF 393 renal it was 31.4 µM; in the experiment with IGROV1 ovarian, 23.7 µM.
